Measurements as given in patent US8129396B2, “2-[1H-benzimidazol-2(3H)-ylidene]-2-(pyrimidin-2-yl)acetamides and 2-[benzothiazol-2(3H)-ylidene]-2-(pyrimidin-2-yl)acetamides as kinase inhibitors” (Telik, Inc., priority 2008, dated 2012).
pIC50: −log10 of the molar value.

What was measured:
Aurora A kinase = biological target: T1, Aurora A kinase (Homo sapiens, UniProt O14965); experiment: Aurora A kinase assay (IMAP fluorescence polarization); format: biochemical; conditions: 10 μM ATP; rounded to 1 significant figure; read-out: Aur-A IC50
T1 construct: purchased Upstate Biotech
T1 sequence (O14965 1-403): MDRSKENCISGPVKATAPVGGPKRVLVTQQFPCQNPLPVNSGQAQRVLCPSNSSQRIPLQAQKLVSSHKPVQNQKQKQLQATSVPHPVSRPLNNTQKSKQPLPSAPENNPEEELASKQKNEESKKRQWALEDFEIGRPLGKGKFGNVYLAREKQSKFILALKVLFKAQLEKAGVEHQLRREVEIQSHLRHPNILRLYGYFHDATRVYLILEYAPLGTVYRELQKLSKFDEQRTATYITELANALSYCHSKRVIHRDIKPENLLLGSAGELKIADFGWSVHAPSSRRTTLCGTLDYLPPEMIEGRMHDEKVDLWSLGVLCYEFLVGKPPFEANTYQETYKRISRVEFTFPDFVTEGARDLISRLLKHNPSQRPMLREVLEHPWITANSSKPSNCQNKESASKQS
Description: (§1) The cell lines HL60 (human promyelocytic leukemia) and HCT116 (human colon carcinoma) were obtained from the American Type Culture Collection, Manassas, Va., U.S.A., and HUVEC-2 (human umbilical vein endothelial cells) from BD Biosciences, Bedford, Mass., U.S.A. Aurora A kinase was obtained from Upstate Biotech, Billerica, Mass., U.S.A.; Aurora B kinase from BPS Bioscience, San Diego, Calif., U.S.A.; and VEGFR2 kinase from Cell Signaling Technology, Danvers, Mass., U.S.A. The IMAP FP Screening Express kit was obtained from Molecular Devices, Sunnyvale, Calif., U.S.A.; the CellTiter-Glo assay kit from Promega Corporation, Madison, Wis., U.S.A.; and the Cellular DNA Cytometric Analysis Reagent Kit and BrdU labeling and detection kit from Roche Diagnostics Corporation, Indianapolis, Ind., U.S.A. All products were used in accordance with manufacturer's directions. Kinase inhibition assays and the histone phosphorylation (p-H3) assay were conducted in duplicate, and the cytotoxicity and HUVEC proliferation assays were conducted in triplicate, in each case with solvent control.
Aurora A kinase assay: the test compounds were diluted in dimethylsulfoxide (DMSO, eight concentrations with serial 3-fold dilutions) and incubated (final DMSO concentration 2.5%) with Aurora A kinase at room temperature for 5 min in kinase reaction buffer with 1 mM dithiothreitol (IMAP FP Screening Express). The kinase reaction was initiated by adding 100 nM fluorescein labeled PKAtide and 10 μM adenosine triphosphate (ATP), and allowed to continue for 45 min at room temperature, after which it was stopped by adding binding reagent (1:400 dilution in binding buffer A). After 30 min of room temperature incubation with shaking, the fluorescence polarization was measured on a LJL plate reader. Aurora B kinase assay: performed as for the Aurora A kinase assay, but using Aurora B kinase instead of Aurora A kinase.

Aurora B kinase = biological target: T2, Aurora B kinase (Homo sapiens, UniProt Q96GD4); experiment: Aurora B kinase assay (IMAP fluorescence polarization); format: biochemical; conditions: 10 μM ATP; rounded to 1 significant figure; read-out: Aur-B IC50
T2 construct: purchased BPS Bioscience
T2 sequence (Q96GD4 whole entry): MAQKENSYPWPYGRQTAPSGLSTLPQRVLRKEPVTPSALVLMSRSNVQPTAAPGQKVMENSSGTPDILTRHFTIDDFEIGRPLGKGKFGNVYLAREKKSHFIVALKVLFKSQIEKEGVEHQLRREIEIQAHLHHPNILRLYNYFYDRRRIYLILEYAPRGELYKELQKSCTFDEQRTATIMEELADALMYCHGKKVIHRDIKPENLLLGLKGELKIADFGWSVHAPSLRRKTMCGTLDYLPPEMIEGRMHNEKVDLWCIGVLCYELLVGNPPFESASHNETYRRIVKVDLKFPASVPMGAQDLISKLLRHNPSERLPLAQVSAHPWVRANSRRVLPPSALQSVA
Description: as §1
The kinase reaction was initiated by adding 100 nM fluorescein labeled PKAtide and 10 μM adenosine triphosphate (ATP), and allowed to continue for 45 min at room temperature, after which it was stopped by adding binding reagent (1:400 dilution in binding buffer A). After 30 min of room temperature incubation with shaking, the fluorescence polarization was measured on a LJL plate reader. Aurora B kinase assay: performed as for the Aurora A kinase assay, but using Aurora B kinase instead of Aurora A kinase.

VEGFR2 kinase = biological target: T3, VEGFR2 kinase (Homo sapiens, UniProt P35968); experiment: VEGFR2 kinase assay; format: biochemical; conditions: 6 μM ATP, 1 mM MnCl2; rounded to 1 significant figure
T3 construct: purchased Cell Signaling Technology
T3 sequence (P35968 20-1356): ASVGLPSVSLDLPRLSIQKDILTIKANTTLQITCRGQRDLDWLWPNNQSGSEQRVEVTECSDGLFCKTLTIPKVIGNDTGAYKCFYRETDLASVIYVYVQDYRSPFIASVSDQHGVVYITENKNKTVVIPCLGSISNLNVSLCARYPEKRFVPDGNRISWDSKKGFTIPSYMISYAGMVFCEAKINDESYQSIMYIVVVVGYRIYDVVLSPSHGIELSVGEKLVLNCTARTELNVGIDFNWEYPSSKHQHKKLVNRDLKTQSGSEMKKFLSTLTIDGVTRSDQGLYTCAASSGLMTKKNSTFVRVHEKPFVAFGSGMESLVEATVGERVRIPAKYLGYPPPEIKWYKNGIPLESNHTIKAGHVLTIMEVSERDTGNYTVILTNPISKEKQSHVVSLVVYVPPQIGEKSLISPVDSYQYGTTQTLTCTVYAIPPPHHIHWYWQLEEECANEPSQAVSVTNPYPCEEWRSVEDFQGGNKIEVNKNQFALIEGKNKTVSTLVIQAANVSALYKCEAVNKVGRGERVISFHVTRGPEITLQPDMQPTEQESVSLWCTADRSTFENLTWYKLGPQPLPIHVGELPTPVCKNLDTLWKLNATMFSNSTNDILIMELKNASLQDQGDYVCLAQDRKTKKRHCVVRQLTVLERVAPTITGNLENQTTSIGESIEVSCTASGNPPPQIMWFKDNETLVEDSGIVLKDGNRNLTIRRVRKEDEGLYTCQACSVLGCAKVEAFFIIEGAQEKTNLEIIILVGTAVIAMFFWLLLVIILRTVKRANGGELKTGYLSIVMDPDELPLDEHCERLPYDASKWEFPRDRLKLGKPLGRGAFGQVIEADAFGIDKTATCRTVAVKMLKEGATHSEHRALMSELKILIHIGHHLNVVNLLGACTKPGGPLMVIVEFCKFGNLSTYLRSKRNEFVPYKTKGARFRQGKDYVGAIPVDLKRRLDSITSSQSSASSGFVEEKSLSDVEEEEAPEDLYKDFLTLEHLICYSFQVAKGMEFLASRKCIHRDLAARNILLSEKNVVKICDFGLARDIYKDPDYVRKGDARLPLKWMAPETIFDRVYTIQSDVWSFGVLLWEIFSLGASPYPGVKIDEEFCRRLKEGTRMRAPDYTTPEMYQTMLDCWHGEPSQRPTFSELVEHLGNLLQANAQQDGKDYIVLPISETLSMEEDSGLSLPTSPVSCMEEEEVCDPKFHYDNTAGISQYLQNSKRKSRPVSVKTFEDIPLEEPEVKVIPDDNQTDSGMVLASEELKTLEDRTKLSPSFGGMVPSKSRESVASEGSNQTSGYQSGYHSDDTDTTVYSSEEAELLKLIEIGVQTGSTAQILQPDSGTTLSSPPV
Description: as §1
This assay was performed as for the Aurora A kinase assay, using VEGFR2 kinase, CSKtide as the substrate with 6 μM ATP and 1 mM MnCl2, a kinase reaction time of 1 hr, and dilution of the binding reagent 1:1200 in binding buffer A/binding buffer B (1:1).

p-H3 in HCT116 cells = experiment: Histone phosphorylation (p-H3) assay; format: cell-based; conditions: Homo sapiens, HCT-116; HCT116 cells, 4 hr incubation; read-out: p-H3 IC50
Description: as §1
Log phase HCT116 cells were seeded at 2.5×10^4 cells/well in a 96-well plate and allowed to attach overnight. The test compounds were diluted in DMSO (8 concentrations with serial 3-fold dilutions) and added to the cells (0.5% DMSO final concentration), and the cells incubated for 4 hr. The cells were then washed three times with cold phosphate-buffered saline (PBS), and lysis buffer was added. After 30 min shaking at 4° C. and centrifugation, the supernatants were transferred to a nitrocellulose membrane by a “dot-blot” apparatus. After washing the wells, the membrane was processed for Western blot. Detection of p-H3 and β-actin was performed on the same membrane with primary rabbit anti-p-H3 and mouse anti-β-actin antibodies followed by secondary goat anti-rabbit IRDye800 and goat anti-mouse AlexaFluor 680 antibodies. The membranes were scanned on an Odyssey scanner.

[1] = tested on: HCT116 (human colon carcinoma) cells; experiment: HCT116 cytotoxicity assay (CellTiter-Glo); format: cell-based; conditions: HCT-116, 72 h, cytotoxicity, three days culture, read-out: HCT116 IC50
Description: as §1
Log-phase cells were trypsinized, collected by centrifugation, and resuspended in a small volume of fresh medium, and the density of viable cells was determined following Trypan Blue staining. Cells were diluted in fresh media (1×10^4 cells/mL for HL60 and 4×10^4 cells/mL for HCT116 cells), the test compounds (concentrations between 0.1 μM and 200 μM, dissolved in DMSO, 50 μL) added immediately after dilution to achieve a final DMSO concentration of 0.5%, then the suspensions added at 150 μL/well to 96-well plates, and incubated overnight to allow attachment in the case of adherent cells. The cells were cultured for three days (about three doubling times). The cells were then collected by centrifugation, and 100 μL of the culture supernatant was replaced by the CellTiter-Glo reagent. After incubation for 15 minutes at room temperature, the plate was read with a luminometer.

[2] = tested on: HUVEC-2 (human umbilical vein endothelial cells); experiment: HUVEC VEGF-dependent proliferation assay (BrdU); format: cell-based; conditions: VEGF (25 ng/mL)-dependent proliferation, read-out: HUVEC IC50
Description: as §1
HUVEC-2 cells were seeded at 10^4 cells/well in a 96-well plate coated with 0.1% gelatin in complete medium. […] The compounds were serially diluted in DMSO, and added to the cells at 0.5% DMSO final concentration. After 2 hr, VEGF (25 ng/mL) was added; and after a further day, 5-bromo-2-deoxyuridine (BrdU, 10 μM) was added to label proliferating cells, and the cells incubated for another day. The plates were then processed using the Roche BrdU labeling and detection kit, and the VEGF-dependent antiproliferative activity of the compounds determined.

Row | pIC50 (Aurora A kinase) | pIC50 (Aurora B kinase) | pIC50 (VEGFR2 kinase) | pIC50 (p-H3 in HCT116 cells) | SMILES | pIC50 [1] | pIC50 [2]
1 | 7.70 | 7.40 | 8.40 | 6.70 | NC(=O)/C(=C1\Nc2ccc(C(=O)NC3CCNCC3)cc2S1)c1nccc(C(F)(F)F)n1 [Compound 71A] | 6.70 | 7.05
2 | 8.00 | 7.70 | 7.22 | 6.22 | NC(=O)/C(=C1\Nc2ccc(S(=O)(=O)NCCN3CCOCC3)cc2S1)c1nccc(C(F)(F)F)n1 [Compound 128A] | 6.05 | 7.22
3 | 7.70 | 8.05 | 7.00 | 6.40 | NC(=O)/C(=C1\Nc2ccc(OCCN3CCOCC3)cc2S1)c1nccc(C(F)(F)F)n1 [Compound 111A] | 5.70 | 6.52
4 | 8.52 | 7.70 | 7.52 | 6.05 | Cn1ccnc1-c1ccc2c(c1)S/C(=C(/C(N)=O)c1nccc(C(F)(F)F)n1)N2 [Compound 106A] | 5.70 | 7.10
5 | 8.70 | 7.70 | 8.00 | 7.00 | NC(=O)/C(=C1\Nc2ccc(CN3CCOCC3)cc2S1)c1nccc(C(F)(F)F)n1 [Compound 91A] | 6.52 | 7.40
6 | 7.70 | 8.00 | 8.70 | 6.70 | NC(=O)/C(=C1\Nc2ccc(C(=O)N3CCC(N)CC3)cc2N1)c1nccc(C(F)(F)F)n1 [Compound 66A] | 6.70 | 7.30
7 | 8.00 | 7.40 | 8.40 | 7.40 | NC(=O)/C(=C1\Nc2ccc(C(=O)N3CCC(N)CC3)cc2S1)c1nccc(C(F)(F)F)n1 [Compound 67A] | 6.70 | 7.70
8 | 7.70 | 7.70 | 8.00 | 7.00 | CN1CCN(Cc2ccc3c(c2)S/C(=C(/C(N)=O)c2nccc(C(F)(F)F)n2)N3)CC1 [Compound 93A] | 6.52 | 7.52
9 | 7.70 | 7.70 | 8.00 | 7.00 | CN1CCN(CCNC(=O)c2ccc3c(c2)S/C(=C(/C(N)=O)c2nccc(C(F)(F)F)n2)N3)CC1 [Compound 57A] | 7.00 | 7.70

The next lines start with the molecule.

Row | SMILES | pIC50 (Aurora A kinase) | pIC50 (Aurora B kinase) | pIC50 (VEGFR2 kinase) | pIC50 (p-H3 in HCT116 cells) | pIC50 [1] | pIC50 [2]
10 | CN(CCN1CCCCC1)c1ccc2c(c1)S/C(=C(/C(N)=O)c1nccc(C(F)(F)F)n1)N2 [Compound 125A] | 7.52 | 8.00 | 7.70 | 6.70 | 5.52 | 6.22
11 | Cc1cc2c(cc1C)NC(=C(C(N)=O)c1ncc(C(=O)NCCCN3CCOCC3)c(C(F)(F)F)n1)N2 [Compound 133A] | 7.40 | 8.00 | 7.22 | 6.52 | 6.10 | 6.70
12 | NC(=O)/C(=C1\Nc2ccc(N3CCC(N4CCCCC4)CC3)cc2S1)c1nccc(C(F)(F)F)n1 [Compound 121A] | 7.52 | 8.10 | 7.70 | 7.05 | 6.00 | 6.05
13 | NC(=O)/C(=C1\Nc2cc(OCCN3CCOCC3)ccc2S1)c1nccc(C(F)(F)F)n1 [Compound 112A] | 7.70 | 7.70 | 6.70 | 6.05 | 5.70 | 6.70
14 | CN1CCCCC1C(=O)Nc1ccc2c(c1)N/C(=C(/C(N)=O)c1nccc(C(F)(F)F)n1)N2 (stereo not drawn) [Compound 82A] | 8.10 | 8.15 | 8.00 | 6.40 | 7.10 | 7.52
15 | NC(=O)/C(=C1\Nc2ccccc2S1)c1ncc(C(=O)NCCCN2CCOCC2)c(C(F)(F)F)n1 [Compound 131A] | 7.05 | 7.22 | 6.70 | 6.05 | 5.70 | 6.10
16 | NC(=O)C(=C1Nc2ccccc2N1)c1ncc(C(=O)NCCCN2CCOCC2)c(C(F)(F)F)n1 [Compound 132A] | 7.22 | 7.70 | 7.00 | 5.70 | 6.00 | 6.22
17 | NC(=O)C(=C1Nc2ccccc2N1)c1ncc(C(=O)NCCN2CCOCC2)c(C(F)(F)F)n1 [Compound 135A] | 7.52 | 7.70 | 7.00 | 6.30 | 5.40 | 6.22
18 | CN1CCN(CCOc2ccc3c(c2)S/C(=C(/C(N)=O)c2nccc(C(F)(F)F)n2)N3)CC1 [Compound 114A] | 7.40 | 7.70 | 7.40 | 7.30 | 6.22 | 7.40
19 | CN1CCN(C(=O)c2cnc(C(C(N)=O)=C3Nc4ccccc4S3)nc2C(F)(F)F)CC1 (single isomer, unassigned) [Compound 130A, 2-[benzothiazol-2(3H)-ylidene]-2-[5-(4-methylpiperazine-1-carbonyl)-4-trifluoromethylpyrimidin-2-yl]acetamide] | 7.00 | 8.05 | 7.70 | 6.52 | 5.70 | 6.40
20 | NC(=O)/C(=C1\Nc2ccccc2S1)c1ncc(C(=O)NCCN2CCOCC2)c(C(F)(F)F)n1 [Compound 134A] | 7.30 | 8.00 | 7.10 | 6.40 | 5.40 | 6.22
21 | NC(=O)/C(=C1\Nc2cc(F)c(C(=O)NCCCN3CCOCC3)cc2S1)c1nccc(C(F)(F)F)n1 [Compound 50A] | 7.70 | 8.00 | 7.70 | 6.40 | 6.52 | 7.05
